Earlier results on one substance are cited in patent US20090318377A1, “MEDICAGENIC ACID SAPONIN AND USES THEREOF” (MEDICAGO INC., priority 2006, published 2009).

For the data set, the system named is Syrian Golden hamster. The following applies: average daily dose 128 mg/kg for 4 weeks.

Take soyasaponin B: the “reduction in high-density lipoprotein (HDL)” value was 33%, the “reduction in plasma cholesterol” value is reported as 20% and the reduction in triglycerides is 18%.
